Measured values published in patent US20200157048A1, “(2E,4E)-5-PHENYL-PENTA-2,4-DIEN-1-ONE DERIVATIVE” (BIOWAY., INC, priority 2018, published 2020).

Biological target: T1, SIRT1 (Homo sapiens, UniProt Q96EB6)
T1 construct: purchased Cayman (Ann Arbor, Mich., USA)
T1 sequence (Q96EB6 1-747): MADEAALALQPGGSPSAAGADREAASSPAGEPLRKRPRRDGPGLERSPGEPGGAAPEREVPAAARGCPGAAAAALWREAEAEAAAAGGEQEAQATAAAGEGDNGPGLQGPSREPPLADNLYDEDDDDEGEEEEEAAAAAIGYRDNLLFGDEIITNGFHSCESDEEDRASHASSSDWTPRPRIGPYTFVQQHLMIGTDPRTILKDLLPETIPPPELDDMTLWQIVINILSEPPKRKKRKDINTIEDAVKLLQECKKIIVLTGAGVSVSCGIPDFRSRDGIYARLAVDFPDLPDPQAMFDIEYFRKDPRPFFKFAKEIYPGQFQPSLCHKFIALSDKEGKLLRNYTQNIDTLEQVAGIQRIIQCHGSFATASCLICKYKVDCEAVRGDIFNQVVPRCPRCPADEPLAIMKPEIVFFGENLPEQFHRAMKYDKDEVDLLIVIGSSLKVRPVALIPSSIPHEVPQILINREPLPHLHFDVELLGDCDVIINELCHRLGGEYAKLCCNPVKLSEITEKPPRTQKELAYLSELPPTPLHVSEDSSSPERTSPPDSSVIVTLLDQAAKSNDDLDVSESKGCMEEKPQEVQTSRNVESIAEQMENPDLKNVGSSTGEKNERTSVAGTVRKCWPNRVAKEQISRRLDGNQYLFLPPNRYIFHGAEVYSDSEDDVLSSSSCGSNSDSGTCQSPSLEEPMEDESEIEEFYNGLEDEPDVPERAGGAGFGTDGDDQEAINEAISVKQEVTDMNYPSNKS
Test: SIRT1 direct fluorescent assay
Assay type: biochemical
Details: 20 μM
Experimental: All materials were provided from a Sirt1 direct fluorescent screening assay kit (Cayman, Ann Arbor, Mich., USA).
SIRT1, p53 conjugated aminomethyl coumarin (AMC) protein, and 3 mM NAD^+ were added to a diluted analysis buffer (50 mM Tris-HCl, pH 8.0, 137 mM NaCl, 2.7 mM KCl, and 1 mM MgCl2).
25 μL of the analysis buffer, 5 μL of diluted SIRT1, and 5 μL of a solvent were added to each of three 100% initial activity wells of a 96-well plate.
30 μL of the analysis buffer and 5 μL of a solvent were added to each of three background wells of the 96-well plate.
25 μL of the analysis buffer, 5 μL of diluted SIRT1, and 5 μL of a diluted test compound were added to each of three sample wells of the 96-well plate. The final DMSO concentration was less than 2%.
15 μL of a 3 mM NAD^+-containing substrate solution was added to all wells to begin the reaction. The 96-well plate was covered with a plate cover, and then incubated in a shaker at room temperature (25 to 30° C.) for 45 minutes.
A stop/developing solution was prepared. To prepare the final 5 mL solution, 200 μL of nicotinamide (NAM, Sigma-Aldrich) was added to a color developing powder weighing 30 mg, 4.8 mL of a diluted analysis buffer was added thereto, and the resulting mixture was stirred until the powder became a solution.
The plate cover was removed, and 50 μL of the stop/developing solution was added to each well.
The 96-well plate was covered with a plate cover, and incubated at room temperature (25 to 30° C.) for 30 minutes.
The plate cover was removed, and the plate was read using Cytation 5 at an excitation wavelength of 360 nm and an emission wavelength of 450 nm.
The mean fluorescence of each sample was measured.
The fluorescence of the background wells was subtracted from the fluorescence of the 100% initial activity wells and sample wells.
To determine the percent of each sample, each sample value was subtracted from the 100% initial activity value, and the resulting value was divided by the 100% initial activity value and then multiplied by 100 and added to 100, which was expressed as a percentage.

increase of SIRT1 activity (FIG. 18): about 20%
SMILES: CSc1ccc(/C=C/C=C/C(=O)N2CCCCC2)cc1 [YU2014, (2E,4E)-5-(4-(methylthio)phenyl)-1-(piperidine-1-yl)penta-2,4-dien-1-one]
